Source: PMC6788984, “High-potency ligands for DREADD imaging and activation in rodents and monkeys” (Nature Communications, 2019)
Where “and” joins values, the source holds several entries; their conditions need not be identical. Equal entries are not always repeated.

Tests used:
hM4Di [1] = target: T1, hM4Di (Homo sapiens, UniProt P08173, A203G/Y113C); test: [3H]clozapine competition binding, membranes of HEK-293 cells expressing hM4Di
T1 sequence (P08173 1-479 Y113C/A203G): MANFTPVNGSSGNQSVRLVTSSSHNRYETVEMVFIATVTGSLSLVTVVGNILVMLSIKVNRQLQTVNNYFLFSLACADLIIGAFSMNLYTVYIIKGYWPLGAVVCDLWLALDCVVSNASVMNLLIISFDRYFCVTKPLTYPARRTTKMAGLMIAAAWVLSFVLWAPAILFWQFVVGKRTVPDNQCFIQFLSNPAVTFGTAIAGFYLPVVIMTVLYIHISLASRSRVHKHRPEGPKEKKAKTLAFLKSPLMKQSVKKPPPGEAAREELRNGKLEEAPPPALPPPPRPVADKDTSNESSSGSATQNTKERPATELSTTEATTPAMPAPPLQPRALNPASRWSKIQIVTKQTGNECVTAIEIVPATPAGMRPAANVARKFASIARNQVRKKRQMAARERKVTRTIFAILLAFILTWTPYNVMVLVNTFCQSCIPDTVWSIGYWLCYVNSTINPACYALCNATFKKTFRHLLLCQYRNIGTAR
Experimental: (§2) Cells were routinely tested for myclopasma contamination (MycoAlert® Mycoplasma Detection Kit, Lonza). Cells were seeded on 60 cm^2 dishes at 4 × 10^6 cells/dish 24 h before transfection. The indicated amount of cDNA was transfected into HEK-293 cells using polyethylenimine (PEI; Sigma-Aldrich) in a 1–2 DNA:PEI ratio. Cell harvesting for radioligand binding experiments or signaling assays were performed approximately 48 h after transfection.
(§3) Cells were suspended in Tris-HCl 50 mM pH 7.4 supplemented with protease inhibitor cocktail (1:100, Sigma-Aldrich, St. Louis, MO, USA). The dissected brain tissue was diluted in Tris-HCl 50 mM buffer supplemented with protease inhibitor cocktail (1:1000). HEK-293 cells or brain tissue were disrupted with a Polytron homogenizer (Kinematica, Basel, Switzerland). Homogenates were centrifuged at 48,000g (50 min, 4 °C) and washed twice in the same conditions to isolate the membrane fraction. Protein was quantified by the bicinchoninic acid method (Pierce). […] In all cases, free and membrane-bound radioligand were separated by rapid filtration of 500-μl aliquots in a 96-well plate harvester (Brandel, Gaithersburg, MD, USA) and washed with 2 ml of ice-cold Tris-HCl buffer. […] One-site competition curves were fitted using Prism 7 (GraphPad Software, La Jolla, CA, USA). Ki values were calculated using the Cheng–Prusoff equation.

hM3Dq = hM3Dq (Homo sapiens, UniProt P20309, A239G/Y149C); test: [3H]clozapine competition binding, membranes of HEK-293 cells expressing hM3Dq
Chain of hM3Dq (P20309 whole entry Y149C/A239G): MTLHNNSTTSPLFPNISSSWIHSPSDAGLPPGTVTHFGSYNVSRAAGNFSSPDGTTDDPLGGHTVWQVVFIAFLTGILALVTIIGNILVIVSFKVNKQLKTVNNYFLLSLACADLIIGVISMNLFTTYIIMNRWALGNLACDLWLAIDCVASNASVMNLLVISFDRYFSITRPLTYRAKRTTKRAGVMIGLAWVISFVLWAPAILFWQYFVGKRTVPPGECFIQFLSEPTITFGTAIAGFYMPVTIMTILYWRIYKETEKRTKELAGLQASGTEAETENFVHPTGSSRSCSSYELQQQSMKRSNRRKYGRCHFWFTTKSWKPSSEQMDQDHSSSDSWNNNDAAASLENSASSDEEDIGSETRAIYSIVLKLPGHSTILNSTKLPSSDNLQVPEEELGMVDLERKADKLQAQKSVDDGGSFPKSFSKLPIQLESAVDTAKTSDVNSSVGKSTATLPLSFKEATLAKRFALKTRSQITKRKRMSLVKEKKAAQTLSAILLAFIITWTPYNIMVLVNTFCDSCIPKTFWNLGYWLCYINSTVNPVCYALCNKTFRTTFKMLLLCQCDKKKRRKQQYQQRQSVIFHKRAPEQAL
Experimental: as §2, §3

hM4Di [2] = target: T1, hM4Di; test: [18F]JHU37107 PET in a monkey expressing hM4Di in the right amygdala; type: in vivo, rhesus monkey (Macaca mulatta); set-up: expressed in transfected cells; host or cells: rhesus monkey (Macaca mulatta) right amygdala, lentivirus-transduced neurons; conditions: mean
Experimental: Lentivirus expressing an hM4Di-CFP fusion protein under an hSyn promoter[11] with a titer of >10^9 infectious particles was loaded into a 100 µL glass syringe (Hamilton Co., MA). The 31-gauge needle of the syringe was sheathed with a silica capillary (450 µm OD) to create a step 1 mm from the base of the aperture. The syringe was mounted in a Nanomite pump (Harvard Apparatus, Cambridge, MA). The needle was lowered through the incision in the dura mater to each of the pre-calculated target sites and 10 or 20 µL was infused at a rate of 1 µL min^−1. Each monkey received a total of between 10 and 12 injections (for a total injection volume of 120–240 µL). Post-infusion, the needle was left in situ for 10 min after each injection to allow pressure from the infusate to dissipate. The needle was then slowly removed. At the completion of the injection series the soft tissues were sutured together in anatomical layers.
(§1) [^18F]JHU37107 was prepared via the no-carrier-added ^18F-fluorination using an FDG Nuclear Interface module (Muenster, Germany). Briefly, 4 mg precursor (8-chloro-11-(4-ethylpiperazin-1-yl)-5H-dibenzo[b,e][1,4]diazepin-2-ol) and 8 mg tris(acetonitrile)cyclopentadienylruthenium(II)hexafluorophosphate (STREM, Boston, MA) were dissolved in ethanol (0.3 mL), the solution was heated at 85 °C for 25 min and evaporated to dryness under a stream of argon gas. The residue was dissolved in DMSO (0.5 mL) and acetonitrile (0.5 mL) and the solution was added to a dry complex of [^18F]fluoride and 9 mg 1,3-bis(2,6-di-i-propylphenyl)-2-chloroimidazolium chloride (STREM). The reaction mixture was heated at 130 °C for 30 min, diluted with mixture of 0.5 mL acetonitrile, 0.5 mL water and 0.03 mL TFA and injected onto a semi-preparative HPLC column (Luna C18, 10 micron, 10 mm × 250 mm) and eluted with 23:77 (v:v) acetonitrile:water (0.1% trifluoroacetic acid) at a flow rate of 10 mL min^−1. The radioactive peak corresponding to [^18F]JHU37107 (tR = 9.9 min) was collected in a reservoir containing 50 mL of water and 3 mL aq 8.4% NaHCO3 solution. The diluted product was loaded onto a solid phase extraction cartridge (Waters Oasis HLB plus light) and rinsed with 10 mL sterile saline. The product was eluted with 1000 µL of ethanol through a sterile 0.2 μm filter into a sterile, pyrogen-free vial and 10 mL saline was added through the same filter. The final product [^18F]JHU37107 was then analyzed by analytical HPLC (Luna C18, 10 micron, 4.6 mm × 250 mm; mobile phase 23:77 (v:v) acetonitrile:water (0.1% trifluoroacetic acid), flow rate of 3 mL min^−1; tR = 6.4 min) using a UV detector at 254 nm to determine the radiochemical purity (>95%) and specific radioactivity (152–188 GBq μmol^−1 (4100–5070 mCi μmol^−1)) at the time synthesis ended.
All macaque studies were acquired dynamically on the Focus 220 PET scanner (Siemens Medical Solutions, Knoxville, TN). The Focus 220 is a dedicated pre-clinical scanner with a transaxial FOV of 19 cm and an axial FOV of 7.5 cm. Image resolution is <2 mm within the central 5 cm FOV.
After initial evaluation the monkey was sedated with ketamine (10 mg kg^−1) followed by ketoprofen (as an analgesic) and glycopyrrolate (for salvia reduction), all weight dependent IM injections. The monkey would then be placed in the supine position, intubated with a tracheal tube. […] The monkey was always monitored while anesthetized. […]

DREADDs = test: [18F]JHU37107 PET in D1-DREADD transgenic mice; type: in vivo
Experimental: as §1, with “[…] .” for “tR = 6.4 min) using a UV detector at 254 nm to determine the radiochemical purity (>95%) and specific radioactivity (152–188 GBq μmol^−1 (4100–5070 mCi μmol^−1)) at the time synthesis ended.”
Total acquisition time was 60 min.

[3] = system: untransfected HEK-293 cells; test: Negative controls of the functional assays: HEK-293 cells without DREADD; type: cell-based, human; conditions: HEK-293 cells
Experimental: BRET assays were performed to detect receptor ligand-induced Gαo1 protein activation. […] Forty-eight hour after transfection cells were harvested, washed and resuspended in phosphate-buffered saline (PBS). Approximately, 200,000 cells/well were distributed in 96-well plates, and 5 µM Coelenterazine H (substrate for luciferase) was added to each well. Five minutes after addition of Coelenterazine H, ligands were added to each well. The fluorescence of the acceptor was quantified (excitation at 500 nm and emission at 540 nm for 1-s recordings) in a PheraStar FSX plate reader (BMG Labtech) to confirm the constant expression levels across experiments. In parallel, the BRET signal from the same batch of cells was determined as the ratio of the light emitted by mVenus (510–540 nm) over that emitted by RLuc (485 nm). Results were calculated for the BRET change (BRET ratio for the corresponding drug minus BRET ratio in the absence of the drug) 5 min after the addition of the ligands.
Intracellular Ca^2+ concentration was monitored using the fluorescent Ca^2+ biosensor GCaMP6f. HEK-293 cells were transfected with 7 µg/dish of the cDNA encoding for hM3Dq (Addgene #89149) or hM4Di (Addgene #89150) and 7 µg/dish of GCaMP6. Forty-eight hours after transfection, cells were harvested, washed, resuspended in Mg^2+-free Locke’s buffer pH 7.4 (154 mM NaCl, 5.6 mM KCl, 3.6 mM NaHCO3, 2.3 mM CaCl2, and 5 mM HEPES) containing 5.6 mM of glucose and approximately 200,000 cells/well were distributed in black 96-well plates. Increasing concentrations of the indicated compound were added to the cells and fluorescence intensity (excitation at 480 nm, emission at 530 nm) was measured at 18-s intervals during 250 s using a PHERAstar FSX (BMG Labtech). The net change in intracellular Ca^2+ concentration was expressed as F − F0 where F is the fluorescence at a given concentration of ligand and F0 is the average of the baseline values (fluorescence values of buffer-treated wells).

CCN1CCN(C2=Nc3cc(Cl)ccc3Nc3ccc(F)cc32)CC1 [JHU37107, 8-Chloro-11-(4-ethylpiperazin-1-yl)-2-fluoro-5H-dibenzo[b,e][1,4]diazepine]
Ki (hM4Di [1]): 23.5 nM
Ki (hM3Dq): 10.5 nM

CCN1CCN(C2=Nc3ccccc3Nc3ccccc32)CC1 [C22, reference compound]
Ki (hM4Di [1]): 9 nM

CCN1CCN(C2=Nc3cc(Cl)ccc3Nc3ccc([18F])cc32)CC1 [[18F]JHU37107]
PET binding value, PFC mean (Figure 4, second Panel l) (hM4Di [2]; PFC): 1.094
PET binding value, PUT mean (Figure 4, second Panel l) (hM4Di [2]; PUT): 1.196
PET binding value, hM4Di mean (Figure 4, second Panel l) (hM4Di [2]; hM4Di region): 2.423
PET binding value, CB (Figure 4 Panel D, first group) (DREADDs; CB, individual values): 0.271 and 0.3157
PET binding value, CB (Figure 4 Panel D, second group) (DREADDs; CB, individual values): 0.004 and 0.238
PET binding value, CB (Figure 4 Panel D, third group) (DREADDs; CB, individual values): 0.02536 and 0.05718 and 0.04755
PET binding value, CTX (Figure 4 Panel D, first group) (DREADDs; CTX, individual values): 0.3049 and 0.3358
PET binding value, CTX (Figure 4 Panel D, second group) (DREADDs; CTX, individual values): 0.244 and 0.22
PET binding value, CTX (Figure 4 Panel D, third group) (DREADDs; CTX, individual values): 0.4367 and 0.4206 and 0.3996
PET binding value, baseline (Figure 4 Panel D) (DREADDs; first line (values equal the STR values of the third group)): 1.736 and 1.664 and 1.424 and 1.7038 and 1.723 and 1.422
PET binding value, baseline (Figure 4 Panel D) (DREADDs; second line (values equal the CTX values of the third group)): 0.4367 and 0.4206 and 0.3996
PET binding value, blocked (Figure 4 Panel D) (DREADDs; first line (STR by position)): 0.6764 and 0.9438 and 0.6607 and 0.8306
PET binding value, blocked (Figure 4 Panel D) (DREADDs; second line (CTX by position)): 0.2742 and 0.4049
PET binding value, blocked (Figure 4 Panel D) (DREADDs; third line (CB by position)): 0.2463 and 0.2748

C[N+]1([O-])CCN(C2=Nc3cc(Cl)ccc3Nc3ccccc32)CC1 [CNO, clozapine N-oxide, reference compound]
functional response, BRET (Go-alpha-Rluc8, beta1, gamma2-mVenus), no DREADD [3]: did not show any functional response
functional response, GCaMP6f, no DREADD [3]: did not show any functional response
